Laboratory results reported in patent publication US10233198B2, “Pro-drugs of NSAIAs with very high skin and membranes penetration rates and their new medicinal uses” (Techfields Pharma Co., Ltd., priority 2007, dated 2019).

Assays:
normal rats = assay: Blood glucose in normal rats, transdermal; type: in vivo; conditions: no fasting; for Blood glucose, normal rats, Baseline: baseline of the treatment group
[1] = test system: SLAC/GK rats, type 2 diabetes; assay: Blood lipid levels in type 2 diabetic rats, transdermal; type: in vivo
Text: (§1) The pro-drugs in this invention lower blood glucose levels in rat models (SLAC/GK, type 2 diabetes, n=7). 50% acetone solution of diethylaminoethyl acetylsalicylate.acetylsaficylic acid salt (P-1, in acetone); 4-acetamidophenyl salicylyldimethylaminobutyrate.HCl (P-6), diethylaminoethyl 5-(2,4-difluorophenyl) acetylsalicylate.5-(2,4-difluorophenyl) acetylsalicylic acid salt (P-8), diethylaminoethyl salicylsalicylate.AcOH (P-9), diethylaminoethyl salicylate.AcOH (P-10), diethylaminoethyl 5-acetamido-acetylsalicylate (P-58), diethylaminoethyl acetylsalicylsalicylate. acetylsalicylsalicylic acid salt (P-59), diethylaminoethyl acetylsalicylsalicylate. acetylsalicylsalicylsalicylic acid salt (P-60) (equal to of 20 mg/kg of NSAIAs) were administered transdermally to the backs (about 1.5 cm^2) of rats (fur was shaved) once per day (at 8 am) for 5 weeks. The blood glucose levels were measured once every 3 days at 4 pm (no fasting) from the second week to the fifth week. The blood lipid levels were measured at the end of the fifth week.

[2] = test system: SLAC/GK rats, type 2 diabetes; assay: Blood glucose in type 2 diabetic rats, transdermal; type: in vivo; conditions: no fasting; for Blood glucose, diabetic rats, Baseline: baseline of the treatment group
Text: as §1

[3] = test system: SLAC:NOD-IDDM mice, type 1 diabetes; assay: Blood glucose in type 1 diabetic mice, transdermal; type: in vivo; conditions: no fasting; for Blood glucose, type I diabetic mice, Baseline: baseline of the treatment group; for Blood glucose, type I diabetic mice, Average: transdermal, equal to 20 mg/kg of NSAIAs once per day for 7 weeks, fourth to seventh week
Text: The pro-drugs in this invention lower blood glucose levels in mouse models (SLAC:NOD-IDDM, type 1 diabetes, n=7). 20% acetone solution of diethylaminoethyl acetylsalicylate.acetylsalicylic acid salt (P-1, in acetone); 4-acetamidophenyl salicylyldimethylaminobutyrate.HCl (P-6), diethylaminoethyl 5-(2,4-difluorophenyl) acetylsalicylate.5-(2,4-difluorophenyl) acetylsalicylic acid salt (P-8), diethylaminoethyl salicylsalicylate.AcOH (P-9), diethylaminoethyl salicylate.AcOH (P-10), diethylaminoethyl 5-acetamido-acetylsalicylate (P-58), diethylaminoethyl acetylsalicylsalicylate. acetylsalicylsalicylic acid salt (P-59), diethylaminoethyl acetylsalicylsalicylate. acetylsalicylsalicylsalicylic acid salt (P-60) (equal to of 20 mg/kg of NSAIAs) were administered transdermally to the backs (about 1 cm^2) of mice (fur was shaved) once per day (at 8 am) for 7 weeks. The blood glucose levels were measured once every 3 days at 3 pm (no fasting) from the fourth week to the seventh week.

Chinese White rabbits [4] = assay: Autologous blood clot pulmonary embolism model, thrombus propagation; type: in vivo; conditions: 15 mg/kg topically on the back; after 2 days
Experimental: Eighteen Chinese White rabbits weighing between 3.0 and 3.5 kg (aged 6-7 months) were selected and divided into three groups (control, P-1 and […] groups, n=6). One hour before the experiment, thrombi were made by aspirating venous blood (1 ml) into a sterilized bottle to clot. To avoid fragmentation and slow lysis, the autologous blood clots were stabilized in temperature-controlled (70° C.) distilled water for 10 min. After anesthesia, the femoral veins were exposed and distally isolated, and autologous blood clots (0.05 g/kg) were injected through an indwelling catheter (20GA), which had been placed in the femoral vein isolated earlier. 50% acetone solution of diethylaminoethyl acetylsalicylate.acetylsalicylic acid salt (P-1, in acetone, 15 mg/kg) and diethylaminoethyl acetylsalicylsalicylate.acetylsalicylsalicylic acid salt (P-59, 15 mg/kg) were topically applied to the back of the rabbits. After 2 days, rabbits were euthanized with an excessive intravenous injection of sodium amobarbital (60 mg/kg). The lungs and hearts were isolated to observe whether thrombi were present in the pulmonary arteries. The lungs were immersed in 10% formalin for 24 h. Consecutive transverse sections along the obstructed pulmonary arteries were paraffin-embedded and stained with hematoxylin-eosine. […]

[5] = In vivo penetration through skin of intact rats; distribution in plasma and tissues; conditions: 4 hours after 20% P-2 in 1 ml ethanol on about 5 cm^2 of rat back
Experimental: The in vivo rates of penetration of pro-drugs and their parent drugs through the skin of intact rats were compared. The donor consisted of 20% pro-drugs or their parent drugs in 1 ml of ethanol applied to about 5 cm^2 area on the backs of rats (˜200 g). After 4 hours, the rats were killed, and 5 ml of methanol was added to 1 ml of blood, 1 g of liver, 1 g of kidney, or 1 g of brain (liver, kidney or brain was washed with pH 7.2 buffer for three times) and the mixtures were homogenized. The samples were then centrifuged for 5 min and analyzed using HPLC.
After 4 hours, the rats were killed, and 5 ml of methanol was added to 1 ml of blood, 1 g of liver, 1 g of kidney, or 1 g of brain (liver, kidney or brain was washed with pH 7.2 buffer for three times) and the mixtures were homogenized.

[6] = test system: human colon cancer cells (LS174J); assay: Anti-tumor activity, human colon cancer xenograft in nude mice, topical; conditions: day 30, about 30 μl of 5% (1.5 mg) topically every 8 hours
Experimental: In the second anti-tumor experiment, human colon cancer cells (LS174J, 2-3 mm^3 of tumor tissue was used in each mouse) were subcutaneously xenografted into nude mice (BALB). After 7 days, the tumors were growing to the size of 55±10 mm^3 (0.055 ml). Then about 30 μl of 5% (equal to 1.5 mg of the pro-drugs) diethylaminoethyl acetylsalicylate.acetylsalicylic acid salt (P-1, in acetone); 1-piperidinepropyl 2[(2,6-dichlorophenyl)amino]benzene acetate.AcOH (P-2, in water), 1-pyrrolidinepropyl 2-(3-benzoylphenyl) propionate.AcOH (P-3, in water), 4-piperidinemethyl 2-(3-phenoxyphenyl)propionate.AcOH (P-4, in water), 3-piperidinemethyl 2-(ρ-isobutylphenyl) propionate.AcOH (P-5, in water), diethylaminoethyl 1-methyl-5-(4-methylbenzoyl)-1H-pyrrole-2-acetate.AcOH (P-13, in water), 2-(4-morpholinyl)ethyl 2-amino-3-benzoylbenzeneacetateAcOH (P-16, in water), diethylaminoethyl 2-(10,11-dihydro-10-oxodibenzo(b,f)thiepin-2-yl)propionate.AcOH (P-36), diethylaminoethyl 2-[(2,3-dimethylphenypamino]benzoate.AcOH (P-46, in water), diethylaminoethyl 2-[(2,6-dichloro-3-methylphenyl)amino]benzoate.AcOH (P47, in water), N-(2-thiazoyl)-4-N,N-dimethylaminobutyryloxy-2-methyl-2H,1,2-benzothiazine-3-car boxamide 1,1-dioxide.HCl (P-52, in acetone) was topically applied to the human colon cancer cells-implanted area (near the front leg) every 8 hours.

[7] = test system: human breast cancer cells (BCAP-37); assay: Anti-tumor activity, human breast cancer xenograft in nude mice, topical; conditions: day 42; 30 μl of 5% (1.5 mg) topically every 8 hours; BCAP-37 xenograft; in g (unit assumed)
Experimental: For evaluation of anti-tumor activity of the pro-drugs of NSAIAs, human breast cancer cells (BCAP-37, 2-3 mm^3 of tumor tissue was used in each mouse) were subcutaneously xenografted into nude mice (BALE, 12 groups, 7 mice each group). After 14 days, the tumors were growing to the size of 50±10 mm^3 (0.05 ml). Then 30 μl of 5% (equal to 1.5 mg of the pro-drugs) diethylaminoethyl acetylsalicylate.acetylsalicylic acid salt (P-1, in acetone); 1-piperidinepropyl 2[(2,6-dichlorophenyl)amino]benzene acetate.AcOH (P-2, in water), 1-pyrrolidinepropyl 2-(3-benzoylphenyl) propionate.AcOH (P-3, in water), 4-piperidinemethyl 2-(3-phenoxyphenyl)propionate.AcOH (P-4, in water), 3-piperidinemethyl 2-(ρ-isobutylphenyl) propionate.AcOH (P-5, in water), diethylaminoethyl 1-(p-chlorobenzoyl)-5-methoxy-2-methylindole 3-acetate.AcOH (P-11, in water), 2-(4-morpholinyl)ethyl (Z)-5-fluoro-2-methyl-1-[(4-methylsulfinyl) phenylmethylene]-1H-indene-3-acetate.AcOH (P-12, in water), diethylaminoethyl 2-(2,4-dichlorophenoxy)benzeneacetate.AcOH (P-19, in water), diethylaminoethyl 2-(8-methyl-10, 11-dihydro-11-oxodibenz(b,f)oxepin-2-yl)propionate.AcOH (P-37, in water), 1-pyrrolidinepropyl 2-[[(3-(trifluoromethyl)phenyl)amino]benzoate.AcOH (P-48, in water), 4-N,N-dimethylaminobutyryloxy-2-methyl-N-2-pyridinyl-2H,1,2-benzothiazine-3-carb oxamide 1,1-dioxide.HCl (P-51, in acetone) was topically applied to the human breast cancer cells-implanted area (near the front leg) every 8 hours.

Chinese White rabbits [8] = assay: Malassezia-induced psoriasis-like lesions; type: in vivo; conditions: 5% aqueous solution applied twice per day; 10 days after the application
Text: COX-1 and COX-2 play a very important role in animal immune-responses. NSAIAs inhibite COX-1 and COX-2. The pro-drugs of NSAIAs in this invention may be very useful for treating psoriasis, discoid lupus erythematosus, systemic lupus erythematosus (SLE), and other autoimmune diseases. Heavy suspensions of Malassezia [Rosenberg, E. W., et al., Mycopathologia, 72, 147-154 (1980)] were applied to the shaved skin on the backs of the Chinese white rabbits (n=4×6) twice (at 7 am and 7 pm) per day for 2 weeks, lesions similar to psoriasis resulted.

[9] = prodrug versus testosterone (TS); cited from earlier work

| Structure (SMILES) | Blood glucose, normal rats, Baseline (normal rats) | Blood glucose, diabetic rats, Baseline [2] | Blood glucose, type I diabetic mice, Baseline [3] | Blood glucose, type I diabetic mice, Average [3] | Histology of lung tissue and vascular walls after clot injection (Chinese White rabbits [4]) | Weight of nude mice [6] | further results |
| --- | --- | --- | --- | --- | --- | --- | --- |
| CC(=O)Oc1ccccc1C(=O)O.CCN(CC)CCOC(=O)c1ccccc1OC(C)=O [P-1, diethylaminoethyl acetylsalicylate.acetylsalicylic acid salt] | 6.4 ± 1 mmol/L | 16.1 ± 3 mmol/L | 26.1 ± 5 mmol/L | 6.5 ± 1 mmol/L | both lung tissue and vascular walls were normal |  | Blood glucose, normal rats, Average (normal rats; transdermal, equal to 20 mg/kg of NSAIAs once per day for 5 weeks, second to fifth week): 6.3 ± 1 mmol/L; Triglycerides, Baseline ([1]; baseline of the treatment group): 5.9 ± 0.5 mmol/L |
| CC(=O)O.O=C(Cc1ccccc1Nc1c(Cl)cccc1Cl)OCCCN1CCCCC1 [P-2, 1-piperidinepropyl 2[(2,6-dichlorophenyl)amino]benzene acetate.AcOH] |  |  |  |  |  | 22 ± 2 | Brain level of prodrug or metabolite [5]: 25 ± 6 µg/g; Kidney level of prodrug or metabolite [5]: 20 ± 6 µg/g; Liver level of prodrug or metabolite [5]: 22 ± 8 µg/g; Plasma level of prodrug or metabolite [5]: 40000 ± 10000 ng/mL; Weight of nude mice [7]: 22 ± 2 |
| CC(=O)O.CCN(CC)CCOC(=O)Cc1ccc(C(=O)c2ccc(C)cc2)n1C [P-13, diethylaminoethyl 1-methyl-5-(4-methylbenzoyl)-1H-pyrrole-2-acetate.AcOH] |  |  |  |  |  | 21 ± 2 | Psoriasis-like lesions (Chinese White rabbits [8]): the lesions were resolved |
| CC(=O)Oc1ccccc1C(=O)Oc1ccccc1C(=O)O.CCN(CC)CCOC(=O)c1ccccc1OC(=O)c1ccccc1OC(C)=O [P-59, diethylaminoethyl acetylsalicylsalicylate. acetylsalicylsalicylic acid salt] | 7.2 ± 1 mmol/L | 16.3 ± 3 mmol/L | 24.3 ± 3 mmol/L | 8.7 ± 1 mmol/L | both lung tissue and vascular walls were normal |  | Triglycerides, Average ([1]; end of fifth week, transdermal, equal to 20 mg/kg of NSAIAs once per day): 2.9 ± 0.2 mmol/L; Blood glucose, diabetic rats, Average ([2]; transdermal, equal to 20 mg/kg of NSAIAs once per day for 5 weeks, measured every 3 days, second to fifth week): 8.7 ± 1 mmol/L |
| CN(C)CCCC(=O)O[C@H]1CC[C@H]2[C@@H]3CCC4=CC(=O)CC[C@]4(C)[C@H]3CC[C@]12C.Cl [TSBH, testosteronyl-4-dimethylaminobutyrate.HCl] |  |  |  |  |  |  | Diffusion through human skin, times faster than the drug (TS) itself [9]: ~60 times |
